The values that follow come from the NIST ThermoML archive (doi:10.1021/acs.jced.5b00662).

The structures appear in SMILES notation. Numbers after ± are expanded uncertainties.

Assay in the first data set: not given
As to conditions: 363.15 K; 101.33 kPa; Liquid; Vibrating tube method.
Take `COCCOCCOC` [2,5,8-trioxanonane]: the mass density is listed as 874.2 ± 1.1 kg/m3.

Still in this data set, the particulars now being: 368.15 K; 101.33 kPa; Liquid; Concentric cylinders viscometry.
For the compound `OCCOCCO` [diethylene glycol], the viscosity is 3.169 ± 0.13 mPa·s.
Still for that read-out and setting: the same measure for `CCOCCOCCO` [3,6-dioxa-1-octanol]: 0.997 ± 0.042 mPa·s; for `CCOCCO` [2-ethoxyethan-1-ol]: 0.584 ± 0.024 mPa·s.
Still for that read-out and setting: then `COCCOCCOC` [2,5,8-trioxanonane], with 0.444 ± 0.019 mPa·s.

The data set is the same for the next values; noted with them: 368.15 K; 101.33 kPa; Liquid; Vibrating tube method.
Consider `OCCOCCO` [diethylene glycol], for which the mass density came to 1062.8 ± 2 kg/m3.
On the same count and under the same terms, then `CCOCCOCCO` [3,6-dioxa-1-octanol], with 921.4 ± 4.1 kg/m3; and `CCOCCO` [2-ethoxyethan-1-ol], with 861.2 ± 2 kg/m3; and `COCCOCCOC` [2,5,8-trioxanonane], with 869 ± 1.1 kg/m3.

The data set is the same for the next values; noted with them: 373.15 K; 101.33 kPa; Liquid; Concentric cylinders viscometry.
With `OCCOCCO` [diethylene glycol], the viscosity turned out to be 2.871 ± 0.12 mPa·s.
Same read-out and setting: the same measure for `CCOCCOCCO` [3,6-dioxa-1-octanol]: 0.921 ± 0.038 mPa·s.
Still for that read-out and setting: then `CCOCCO` [2-ethoxyethan-1-ol], with 0.518 ± 0.021 mPa·s; and `COCCOCCOC` [2,5,8-trioxanonane], with 0.441 ± 0.019 mPa·s.

Still in this data set, the particulars now being: 373.15 K; 101.33 kPa; Liquid; Vibrating tube method.
As to `OCCOCCO` [diethylene glycol], the mass density was 1059 ± 2 kg/m3.
Same read-out and setting: then `CCOCCOCCO` [3,6-dioxa-1-octanol], with 916.8 ± 4.1 kg/m3; and `CCOCCO` [2-ethoxyethan-1-ol], with 856.3 ± 2 kg/m3; and `COCCOCCOC` [2,5,8-trioxanonane], with 863.8 ± 1.1 kg/m3.

A further data set in a line: refractive index (Na D-line) (dimensionless). As to conditions: 283.15 K; 101.33 kPa; Liquid; Standard Abbe refractometry.
As to `OCCOCCO` [diethylene glycol], the refractive index was 1.45019 ± 0.00061.
On the same count and under the same terms, the same measure for `CCOCCOCCO` [3,6-dioxa-1-octanol]: 1.4311 ± 0.0007; for `CCOCCO` [2-ethoxyethan-1-ol]: 1.4149 ± 0.00061.
Same read-out and setting: the same measure for `COCCOCCOC` [2,5,8-trioxanonane]: 1.41249 ± 0.00066.

The data set is the same for the next values; noted with them: 288.15 K; 101.33 kPa; Liquid; Standard Abbe refractometry.
In the case of `OCCOCCO` [diethylene glycol], the refractive index is given as 1.4486 ± 0.00061.
On the same count and under the same terms, then `CCOCCOCCO` [3,6-dioxa-1-octanol], with 1.42916 ± 0.0007.
Turning to `CCOCCO` [2-ethoxyethan-1-ol], the refractive index turned out to be 1.4125 ± 0.00061.
With `COCCOCCOC` [2,5,8-trioxanonane], the refractive index turned out to be 1.4102 ± 0.00066.

Still in this data set, the particulars now being: 293.15 K; 101.33 kPa; Liquid; Standard Abbe refractometry.
On to `OCCOCCO` [diethylene glycol], for which the refractive index is on record as 1.44702 ± 0.00061.
Regarding `CCOCCOCCO` [3,6-dioxa-1-octanol], the refractive index is given as 1.42711 ± 0.0007.
On to `CCOCCO` [2-ethoxyethan-1-ol], for which the refractive index is reported as 1.41024 ± 0.00061.
Same read-out and setting: then `COCCOCCOC` [2,5,8-trioxanonane], with 1.40802 ± 0.00066.

Still in this data set, the particulars now being: 298.15 K; 101.33 kPa; Liquid; Standard Abbe refractometry.
Take `OCCOCCO` [diethylene glycol]: the refractive index was determined as 1.4454 ± 0.00061.
Regarding `CCOCCOCCO` [3,6-dioxa-1-octanol], the refractive index is reported as 1.42501 ± 0.0007.
Still for that read-out and setting: then `CCOCCO` [2-ethoxyethan-1-ol], with 1.40803 ± 0.00061; and `COCCOCCOC` [2,5,8-trioxanonane], with 1.40579 ± 0.00066.

Still in this data set, the particulars now being: 303.15 K; 101.33 kPa; Liquid; Standard Abbe refractometry.
For `OCCOCCO` [diethylene glycol], the refractive index is 1.44379 ± 0.00061.
On the same count and under the same terms, the same measure for `CCOCCOCCO` [3,6-dioxa-1-octanol]: 1.4229 ± 0.0007.
Same read-out and setting: then `CCOCCO` [2-ethoxyethan-1-ol], with 1.40613 ± 0.00061.
The same measure, in the same setting: the same measure for `COCCOCCOC` [2,5,8-trioxanonane]: 1.40359 ± 0.00066.

Staying with this data set, now noted: 313.15 K; 101.33 kPa; Liquid; Standard Abbe refractometry.
As to `OCCOCCO` [diethylene glycol], the refractive index is on record as 1.44068 ± 0.00061.
The same measure, in the same setting: then `CCOCCOCCO` [3,6-dioxa-1-octanol], with 1.41887 ± 0.0007.
Same read-out and setting: then `CCOCCO` [2-ethoxyethan-1-ol], with 1.4018 ± 0.00061; and `COCCOCCOC` [2,5,8-trioxanonane], with 1.39921 ± 0.00066.

Still in this data set, the particulars now being: 323.15 K; 101.33 kPa; Liquid; Standard Abbe refractometry.
With `OCCOCCO` [diethylene glycol], the refractive index is recorded as 1.43745 ± 0.00061.
The same measure, in the same setting: the same measure for `CCOCCOCCO` [3,6-dioxa-1-octanol]: 1.41483 ± 0.0007.
On the same count and under the same terms, then `CCOCCO` [2-ethoxyethan-1-ol], with 1.39691 ± 0.00061; and `COCCOCCOC` [2,5,8-trioxanonane], with 1.3949 ± 0.00066.

Staying with this data set, now noted: 333.15 K; 101.33 kPa; Liquid; Standard Abbe refractometry.
For `OCCOCCO` [diethylene glycol], the refractive index is on record as 1.43424 ± 0.00061.
On the same count and under the same terms, the same measure for `CCOCCOCCO` [3,6-dioxa-1-octanol]: 1.41082 ± 0.0007.
On the same count and under the same terms, the same measure for `CCOCCO` [2-ethoxyethan-1-ol]: 1.39271 ± 0.00061; for `COCCOCCOC` [2,5,8-trioxanonane]: 1.3905 ± 0.00066.

The same data set, now with this note: 343.15 K; 101.33 kPa; Liquid; Standard Abbe refractometry.
On to `OCCOCCO` [diethylene glycol], for which the refractive index was determined as 1.43105 ± 0.00061.
Still for that read-out and setting: the same measure for `CCOCCOCCO` [3,6-dioxa-1-octanol]: 1.40683 ± 0.0007; for `CCOCCO` [2-ethoxyethan-1-ol]: 1.38849 ± 0.00061.
The same measure, in the same setting: the same measure for `COCCOCCOC` [2,5,8-trioxanonane]: 1.38623 ± 0.00066.

The same data set, now with this note: 353.15 K; 101.33 kPa; Liquid; Standard Abbe refractometry.
`OCCOCCO` [diethylene glycol]: the refractive index is reported as 1.42786 ± 0.00061.
On the same count and under the same terms, then `CCOCCOCCO` [3,6-dioxa-1-octanol], with 1.40276 ± 0.0007; and `CCOCCO` [2-ethoxyethan-1-ol], with 1.3838 ± 0.00061.
With `COCCOCCOC` [2,5,8-trioxanonane], the refractive index came out at 1.38178 ± 0.00066.

The mass density is mass per unit of volume. As usually defined, the viscosity is the internal friction of a fluid under shear. One may read the refractive index as the speed of light in vacuum divided by its phase velocity in the sample.
